Several values for one entry are separate records, joined by “and”; a condition that tells them apart may be missing. Equal entries are not always repeated. Where two headings read alike, the source gives them in different places.
Legend:
[1] = molecular target: T1, HDAC2 (Homo sapiens, UniProt Q92769); assay: Chemoproteomic binding profiling, K562 cell extract, SAHA/ITF2357 probe matrix (Kd app); conditions: protein HDAC2; class I HDAC
T1 construct: used to probe endogenous HDACs in K562 whole cell extracts; endogenous in cells

[2] = molecular target: MiDAC complex (HDAC1/2, DNTTIP1, CDYL, MIDEAS) (Homo sapiens, UniProt Q13547+Q92769); assay: as above; parameters: rows headed: Kd^app CDYL; other: protein CDYL; MiDAC complex; conditions: protein CDYL
[3] = molecular target: T2, HDAC8 (Homo sapiens, UniProt Q9BY41); assay: as above; conditions: protein HDAC8; class I HDAC
T2 construct: used to probe endogenous HDACs in K562 whole cell extracts; endogenous in cells

[4] = molecular target: HDAC3-NCoR complex (Homo sapiens, UniProt O15379); assay: as above
[5] = molecular target: T3, PPP4C (Homo sapiens, UniProt P60510); assay: Competition binding assay in cell lysate, affinity matrix, MS
T3 construct: endogenous in cells
T3 sequence (P60510 1-307): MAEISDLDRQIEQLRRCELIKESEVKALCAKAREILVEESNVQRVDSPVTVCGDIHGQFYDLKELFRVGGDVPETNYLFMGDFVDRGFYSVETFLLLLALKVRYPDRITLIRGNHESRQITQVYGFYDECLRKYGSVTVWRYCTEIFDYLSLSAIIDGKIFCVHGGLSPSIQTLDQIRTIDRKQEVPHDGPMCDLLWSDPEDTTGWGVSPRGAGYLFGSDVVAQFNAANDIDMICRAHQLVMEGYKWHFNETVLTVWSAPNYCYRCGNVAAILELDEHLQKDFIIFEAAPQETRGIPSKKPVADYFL

[6] = molecular target: T4, ISOC1 (Homo sapiens, UniProt Q96CN7); assay: as above
T4 construct: endogenous in cells
T4 sequence (Q96CN7 1-298): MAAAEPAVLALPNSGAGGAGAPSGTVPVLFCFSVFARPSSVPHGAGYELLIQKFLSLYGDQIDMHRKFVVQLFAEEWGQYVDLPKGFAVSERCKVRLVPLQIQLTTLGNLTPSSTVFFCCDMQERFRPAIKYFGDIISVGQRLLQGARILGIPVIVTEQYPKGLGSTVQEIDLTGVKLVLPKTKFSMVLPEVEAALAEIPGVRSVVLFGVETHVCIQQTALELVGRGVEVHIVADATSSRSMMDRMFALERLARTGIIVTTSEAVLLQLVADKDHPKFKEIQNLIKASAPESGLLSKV

[7] = molecular target: T5, BZW2 (Homo sapiens, UniProt Q9Y6E2); assay: as above
T5 construct: endogenous in cells
T5 sequence (Q9Y6E2 1-419): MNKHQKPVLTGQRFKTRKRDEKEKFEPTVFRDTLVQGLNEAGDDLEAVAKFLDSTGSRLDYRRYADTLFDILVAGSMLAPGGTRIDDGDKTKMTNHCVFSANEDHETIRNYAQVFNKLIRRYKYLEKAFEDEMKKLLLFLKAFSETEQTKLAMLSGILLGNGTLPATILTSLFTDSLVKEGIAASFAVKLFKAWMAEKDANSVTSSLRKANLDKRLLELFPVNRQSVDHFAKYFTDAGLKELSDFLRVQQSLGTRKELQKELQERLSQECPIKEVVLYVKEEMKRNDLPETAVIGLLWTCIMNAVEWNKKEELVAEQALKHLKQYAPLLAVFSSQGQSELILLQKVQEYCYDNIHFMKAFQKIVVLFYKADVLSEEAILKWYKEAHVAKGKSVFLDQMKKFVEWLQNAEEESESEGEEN

[8] = molecular target: T6, ALDH2 (Homo sapiens, UniProt P05091); assay: as above
T6 construct: endogenous in cells
T6 sequence (P05091 18-517): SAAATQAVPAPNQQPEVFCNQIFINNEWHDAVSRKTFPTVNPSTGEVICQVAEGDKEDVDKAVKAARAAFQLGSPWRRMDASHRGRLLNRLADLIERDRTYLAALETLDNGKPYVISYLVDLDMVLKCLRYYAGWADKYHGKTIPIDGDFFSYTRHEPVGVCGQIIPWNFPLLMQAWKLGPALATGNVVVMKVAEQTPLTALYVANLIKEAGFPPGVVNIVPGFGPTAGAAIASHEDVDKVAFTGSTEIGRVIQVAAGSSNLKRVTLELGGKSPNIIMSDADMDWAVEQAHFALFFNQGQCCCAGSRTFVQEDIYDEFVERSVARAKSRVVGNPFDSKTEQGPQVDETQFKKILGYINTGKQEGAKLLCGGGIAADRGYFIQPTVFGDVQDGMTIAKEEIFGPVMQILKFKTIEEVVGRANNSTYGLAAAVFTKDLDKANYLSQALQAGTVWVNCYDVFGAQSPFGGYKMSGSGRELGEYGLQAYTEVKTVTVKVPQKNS

[9] = test system: SMARCC2; assay: Competition binding assay in cell lysate, affinity matrix, MS (SMRT/NCoR interactor)
[10] = test system: GATAD2B; assay: Competition binding assay in cell lysate, affinity matrix, MS (Mi-2/NuRD interactor); conditions: K-562 cell lysate
[11] = test system: MTA2; assay: as above
[12] = test system: MTA3; assay: as above
[13] = test system: RBBP7; assay: Competition binding assay in cell lysate, affinity matrix, MS (Sin3/Mi2-NuRD interactor); conditions: K-562 cell lysate
[14] = molecular target: T7, HSPD1 (Homo sapiens, UniProt P10809); assay: Competition binding assay in cell lysate, affinity matrix, MS
T7 construct: endogenous in cells

[15] = protein GPS2, read-out: Kd^app GPS2
[16] = protein NCOR1, read-out: Kd^app NCOR1
[17] = protein NCOR2, read-out: Kd^app NCOR2
[18] = protein TBL1X, read-out: Kd^app TBL1X
[19] = protein TBL1XR1, read-out: Kd^app TBL1XR1
[20] = mix of Jurkat and Ramos cell lysates

HDAC3-NCoR complex, sequence (O15379 whole entry, one chain of several): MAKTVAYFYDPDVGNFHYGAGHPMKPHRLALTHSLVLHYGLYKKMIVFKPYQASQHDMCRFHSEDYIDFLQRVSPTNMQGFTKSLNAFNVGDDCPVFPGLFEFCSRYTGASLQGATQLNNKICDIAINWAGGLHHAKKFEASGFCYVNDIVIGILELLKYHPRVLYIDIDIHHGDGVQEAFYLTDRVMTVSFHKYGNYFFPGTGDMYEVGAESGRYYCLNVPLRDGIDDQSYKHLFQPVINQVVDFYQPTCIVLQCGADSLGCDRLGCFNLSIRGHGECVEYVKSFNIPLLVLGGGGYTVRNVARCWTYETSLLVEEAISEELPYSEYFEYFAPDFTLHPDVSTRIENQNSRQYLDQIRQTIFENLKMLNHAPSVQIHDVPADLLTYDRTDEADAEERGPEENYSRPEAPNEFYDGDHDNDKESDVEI
T7 sequence (P10809 27-573): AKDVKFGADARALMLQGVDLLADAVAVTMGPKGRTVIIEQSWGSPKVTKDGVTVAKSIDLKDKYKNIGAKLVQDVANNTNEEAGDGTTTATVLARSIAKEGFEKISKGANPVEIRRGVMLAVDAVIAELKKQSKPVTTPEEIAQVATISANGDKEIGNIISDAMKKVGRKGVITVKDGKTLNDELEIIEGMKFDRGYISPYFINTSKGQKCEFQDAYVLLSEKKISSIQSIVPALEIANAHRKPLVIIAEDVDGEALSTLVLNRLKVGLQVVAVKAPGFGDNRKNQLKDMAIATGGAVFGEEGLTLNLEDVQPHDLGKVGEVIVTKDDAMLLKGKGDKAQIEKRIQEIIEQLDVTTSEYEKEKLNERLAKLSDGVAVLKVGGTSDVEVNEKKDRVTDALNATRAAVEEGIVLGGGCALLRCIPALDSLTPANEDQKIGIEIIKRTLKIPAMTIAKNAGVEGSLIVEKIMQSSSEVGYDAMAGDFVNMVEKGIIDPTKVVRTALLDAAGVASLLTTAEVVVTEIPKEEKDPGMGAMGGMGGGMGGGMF
MiDAC complex (HDAC1/2, DNTTIP1, CDYL, MIDEAS), sequence (Q13547 whole entry): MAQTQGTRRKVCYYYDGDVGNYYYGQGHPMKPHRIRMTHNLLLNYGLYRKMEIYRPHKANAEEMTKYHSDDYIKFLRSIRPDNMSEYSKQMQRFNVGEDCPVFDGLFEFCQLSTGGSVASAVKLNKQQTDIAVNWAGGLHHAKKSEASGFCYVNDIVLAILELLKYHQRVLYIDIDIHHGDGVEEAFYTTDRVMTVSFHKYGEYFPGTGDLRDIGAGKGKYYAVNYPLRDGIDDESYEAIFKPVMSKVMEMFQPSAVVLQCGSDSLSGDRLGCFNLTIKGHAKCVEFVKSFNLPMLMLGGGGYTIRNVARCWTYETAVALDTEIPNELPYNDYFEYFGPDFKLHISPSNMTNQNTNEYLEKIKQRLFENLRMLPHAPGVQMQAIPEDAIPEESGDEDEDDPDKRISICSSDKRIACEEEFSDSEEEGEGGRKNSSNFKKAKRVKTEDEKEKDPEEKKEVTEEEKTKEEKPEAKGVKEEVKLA
MiDAC complex (HDAC1/2, DNTTIP1, CDYL, MIDEAS), sequence (Q92769 whole entry): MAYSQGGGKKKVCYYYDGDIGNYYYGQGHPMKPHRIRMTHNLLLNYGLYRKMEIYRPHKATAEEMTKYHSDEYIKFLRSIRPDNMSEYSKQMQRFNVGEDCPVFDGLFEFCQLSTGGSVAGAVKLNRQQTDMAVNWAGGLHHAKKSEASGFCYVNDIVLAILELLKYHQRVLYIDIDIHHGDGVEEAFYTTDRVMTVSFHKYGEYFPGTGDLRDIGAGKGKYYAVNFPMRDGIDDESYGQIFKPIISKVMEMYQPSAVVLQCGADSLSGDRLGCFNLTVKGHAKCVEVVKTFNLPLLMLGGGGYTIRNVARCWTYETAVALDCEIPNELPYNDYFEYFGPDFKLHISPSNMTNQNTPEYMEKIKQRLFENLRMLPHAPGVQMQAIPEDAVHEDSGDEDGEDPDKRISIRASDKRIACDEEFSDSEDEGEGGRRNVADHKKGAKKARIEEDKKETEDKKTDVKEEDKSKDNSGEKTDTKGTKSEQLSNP
MiDAC complex (HDAC1/2, DNTTIP1, CDYL, MIDEAS), sequence (Q9Y232 whole entry partner): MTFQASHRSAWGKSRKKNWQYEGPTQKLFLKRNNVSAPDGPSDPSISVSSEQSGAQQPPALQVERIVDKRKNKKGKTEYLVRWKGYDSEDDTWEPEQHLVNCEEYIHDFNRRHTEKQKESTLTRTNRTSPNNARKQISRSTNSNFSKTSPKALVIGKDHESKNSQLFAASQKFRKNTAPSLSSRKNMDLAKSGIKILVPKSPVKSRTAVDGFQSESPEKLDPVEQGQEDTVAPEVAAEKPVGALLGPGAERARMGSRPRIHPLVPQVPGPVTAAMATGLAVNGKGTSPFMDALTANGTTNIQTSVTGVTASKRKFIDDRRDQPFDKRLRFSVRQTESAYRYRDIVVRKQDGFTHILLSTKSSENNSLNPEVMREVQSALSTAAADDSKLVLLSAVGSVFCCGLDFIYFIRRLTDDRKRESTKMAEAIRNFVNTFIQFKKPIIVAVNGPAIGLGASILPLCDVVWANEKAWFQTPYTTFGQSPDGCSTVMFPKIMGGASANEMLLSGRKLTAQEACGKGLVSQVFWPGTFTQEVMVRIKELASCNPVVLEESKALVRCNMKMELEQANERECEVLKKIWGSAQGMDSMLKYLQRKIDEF
MiDAC complex (HDAC1/2, DNTTIP1, CDYL, MIDEAS), sequence (Q9H147 whole entry partner): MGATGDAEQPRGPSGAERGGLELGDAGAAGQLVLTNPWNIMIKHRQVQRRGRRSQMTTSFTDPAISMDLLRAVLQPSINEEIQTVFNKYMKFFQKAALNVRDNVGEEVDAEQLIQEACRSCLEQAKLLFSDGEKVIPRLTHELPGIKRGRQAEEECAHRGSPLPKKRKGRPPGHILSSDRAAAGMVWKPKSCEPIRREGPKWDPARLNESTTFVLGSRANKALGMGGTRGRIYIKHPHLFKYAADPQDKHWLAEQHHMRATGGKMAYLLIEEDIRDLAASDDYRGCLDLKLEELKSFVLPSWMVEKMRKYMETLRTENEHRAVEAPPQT
MiDAC complex (HDAC1/2, DNTTIP1, CDYL, MIDEAS), sequence (Q6PJG2 whole entry partner): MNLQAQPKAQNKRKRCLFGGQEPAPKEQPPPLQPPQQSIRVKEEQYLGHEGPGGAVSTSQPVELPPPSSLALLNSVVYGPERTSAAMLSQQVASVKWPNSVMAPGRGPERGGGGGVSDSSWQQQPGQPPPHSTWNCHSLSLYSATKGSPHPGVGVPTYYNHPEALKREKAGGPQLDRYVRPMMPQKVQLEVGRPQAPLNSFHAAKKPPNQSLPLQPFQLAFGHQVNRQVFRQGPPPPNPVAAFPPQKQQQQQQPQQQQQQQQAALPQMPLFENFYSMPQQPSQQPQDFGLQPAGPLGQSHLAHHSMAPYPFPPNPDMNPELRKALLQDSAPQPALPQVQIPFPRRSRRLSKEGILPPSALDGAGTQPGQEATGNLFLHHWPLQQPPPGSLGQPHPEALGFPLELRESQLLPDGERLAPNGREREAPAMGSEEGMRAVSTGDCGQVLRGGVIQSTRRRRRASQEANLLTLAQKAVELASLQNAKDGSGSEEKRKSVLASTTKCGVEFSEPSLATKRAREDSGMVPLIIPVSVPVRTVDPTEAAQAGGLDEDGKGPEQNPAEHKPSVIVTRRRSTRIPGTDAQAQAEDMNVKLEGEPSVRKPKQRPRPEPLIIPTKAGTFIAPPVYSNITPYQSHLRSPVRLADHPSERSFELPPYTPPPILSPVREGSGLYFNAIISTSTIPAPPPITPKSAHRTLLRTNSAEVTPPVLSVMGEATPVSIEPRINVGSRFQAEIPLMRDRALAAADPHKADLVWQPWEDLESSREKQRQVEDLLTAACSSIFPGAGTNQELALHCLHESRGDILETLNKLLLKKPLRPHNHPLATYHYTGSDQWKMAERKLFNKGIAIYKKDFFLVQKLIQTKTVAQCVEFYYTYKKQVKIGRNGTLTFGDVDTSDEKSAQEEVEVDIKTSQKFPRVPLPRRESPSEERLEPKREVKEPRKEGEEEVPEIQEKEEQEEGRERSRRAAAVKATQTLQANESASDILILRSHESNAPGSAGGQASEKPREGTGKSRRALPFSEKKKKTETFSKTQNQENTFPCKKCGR
T1 sequence (Q92769 whole entry): as the sequence (Q92769 whole entry) above
T2 sequence (Q9BY41 whole entry): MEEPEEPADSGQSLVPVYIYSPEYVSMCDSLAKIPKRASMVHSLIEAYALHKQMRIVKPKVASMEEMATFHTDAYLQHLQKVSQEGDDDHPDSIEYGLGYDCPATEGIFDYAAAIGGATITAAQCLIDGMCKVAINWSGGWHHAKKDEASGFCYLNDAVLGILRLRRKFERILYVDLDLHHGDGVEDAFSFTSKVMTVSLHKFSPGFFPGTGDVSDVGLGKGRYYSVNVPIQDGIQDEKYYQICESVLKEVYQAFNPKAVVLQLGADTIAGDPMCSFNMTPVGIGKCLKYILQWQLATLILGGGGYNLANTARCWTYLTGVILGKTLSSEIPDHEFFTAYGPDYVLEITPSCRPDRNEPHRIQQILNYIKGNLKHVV

| SMILES | Kd [1] [µM] | Kd [2] [µM] | Kd [3] [µM] | Kd [4, 15] [µM] | Kd [4, 16] [µM] | Kd [4, 17] [µM] | Kd [4, 18] [µM] | Kd [4, 19] [µM] | IC50 ([5]; read-out: IC50) [µM] | IC50 ([9]; K-562 cell lysate) [µM] | IC50 [10] [µM] | IC50 ([11]; K-562 cell lysate) [µM] | IC50 ([12]; K-562 cell lysate) [µM] | IC50 [13] [µM] | IC50 ([14]; read-out: IC50) [µM] | further results |
| --- | --- | --- | --- | --- | --- | --- | --- | --- | --- | --- | --- | --- | --- | --- | --- | --- |
| Nc1ccccc1NC(=O)CCCCCCC(=O)Nc1ccccc1 [BML-210] | 35 | > 85 | > 85 | 4 | 7 | 15 | 4 | 4 | – | – | – | – | – | – | – | – |
| Nc1ccccc1NC(=O)c1ccc(CNC(=O)OCc2cccnc2)cc1 [MS-275] | – | – | – | – | – | – | – | – | ≥ 300 | 300 | 300 | 300 | 300 | 300 | ≥ 300 | IC50 ([6]; read-out: IC50): ≥ 300 µM; IC50 ([7]; read-out: IC50): ≥ 300 µM; IC50 ([8]; read-out: IC50): ≥ 300 µM |
| O=C(CCCCCCC(=O)Nc1ccccc1)NO [SAHA, suberoylanilide hydroxamic acid] | – | – | – | – | – | – | – | – | ≥ 10 | 10 | 2.5 | 10 | 1.93 | 10 | ≥ 10 | IC50 ([5]; IC50, PPP4C, mix of Jurkat and Ramos cell lysates): 10 µM; IC50 ([6]; IC50, ISOC1, K-562 cell lysate): 1.1 µM; IC50 ([6]; IC50, ISOC1, mix of Jurkat and Ramos cell lysates): 2.19 µM; IC50 ([7]; IC50, BZW2, K-562 cell lysate): 3.07 µM; IC50 ([7]; IC50, BZW2, mix of Jurkat and Ramos cell lysates): 10 µM; IC50 ([8]; IC50, ALDH2, K-562 cell lysate): 0.63 µM; IC50 ([8]; IC50, ALDH2, mix of Jurkat and Ramos cell lysates): 4.81 µM; IC50 [9, 20]: 10 µM; IC50 [11, 20]: 0.53 µM; IC50 [12, 20]: 1.8 µM and 1.82 µM; IC50 ([14]; IC50, HSPD1, mix of Jurkat and Ramos cell lysates): 10 µM |
| CCCCOc1ccc(CC(=O)NO)cc1 [bufexamac] | > 59.7 | 151 | 243 | 599 | > 59.7 | 418 | 542 | 530 | – | – | – | – | – | – | – | – |

Source: patent publication US20130071854A1, “METHODS FOR THE IDENTIFICATION AND CHARACTERIZATION OF HDAC INTERACTING COMPOUNDS” (priority 2009, published 2013)
